{"source": "patent US20250268261A1", "about": "“METHODS FOR THE CONTROL OF POA ANNUA IN WARM SEASON TURFGRASS USING THIENCARBAZONE-METHYL” (Discovery Purchaser Corporation, priority 2024, published 2025)", "type_in_all_cases": "in vivo", "key": {"[1]": {"system": "Poa annua", "test": "Field trial, bermudagrass stands infested with Poa annua, Clayton, North Carolina, autumn 2022", "details": "FIG. 11", "description": "(§1) As used herein, the term “Abbott's percentage reduction,” in all of its forms, refers to a measure of percentage control relative to the population in an untreated control stand of turfgrass. Rather than representing a simple percentage control on a per treatment basis, the Abbott's percentage reduction measure accounts for naturally occurring shifts in the target population and limits rating bias over time. Abbott's percentage reduction may be represented by the following\nStands of bermudagrass infested with Poa annua were treated with thiencarbazone-methyl (TCM) at different stages of Poa annua development and under different climatological conditions in a set of trials conducted during the autumn of 2022 in Clayton, North Carolina. Stands of bermudagrass containing Poa annua in a pre-emergent growth phase were treated with thiencarbazone-methyl (TCM) on September 23rd. Stands of bermudagrass containing Poa annua in an early post-emergent growth state characterized by having two or fewer tillers were treated with thiencarbazone-methyl (TCM) on November 21st. Stands of bermudagrass containing Po annua in a late post-emergent growth state characterized by having more than two tillers were treated with thiencarbazone-methyl (TCM) on December 8th. The Clayton trial data is shown in FIG. 11 while FIG. 13 provides the corresponding environmental data for Clayton during the trials. […]"}, "[2]": {"system": "Poa annua", "test": "Field trial, bermudagrass stands infested with Poa annua, Blacksburg, Virginia, autumn 2022", "details": "FIG. 10", "description": "as §1\nStands of bermudagrass infested with Poa annua were treated with thiencarbazone-methyl (TCM) at different stages of Poa annua development and under different climatological conditions in a set of trials conducted during the autumn of 2022 in Blacksburg, Virginia. Stands of bermudagrass containing Poa annua in a pre-emergent growth phase were treated with thiencarbazone-methyl (TCM) on September 14th. Stands of bermudagrass containing Poa annua in an early post-emergent growth state characterized by having two or fewer tillers were treated with thiencarbazone-methyl (TCM) on October 5th. Stands of bermudagrass containing Poa annua in a late post-emergent growth state characterized by having more than two tillers were treated with thiencarbazone-methyl (TCM) on November 9th. The Blacksburg trial data is shown in FIG. 10 while FIG. 12 provides the corresponding environmental data for Blacksburg during the trials. The Days After Application “DAA” shown in FIG. 10 refers to the days after thiencarbazone-methyl (TCM) was applied to the stands of bermudagrass containing Poa annua in a pre-emergent growth phase on Sep. 14, 2022. The horizontal line in FIG. 12 represents the temperature (66 degrees Fahrenheit) at which peak Poa annua germination has been observed. […] However, treatment of bermudagrass stands containing Poa annua at a later growth stage fell well below the minimum commercially acceptable 80% Abbott control threshold effectiveness."}, "[3]": {"system": "Poa annua", "test": "Single application to warm season turfgrass according to the disclosed methods (summary statement)", "details": "early post-emergence, for at least 120 days following application"}}, "data": [{"compound": "COC(=O)c1csc(C)c1S(=O)(=O)NC(=O)n1nc(OC)n(C)c1=O", "note": "[thiencarbazone-methyl, methyl 4-[(3-methoxy-4-methyl-5-oxo-1,2,4-triazole-1-carbonyl)sulfamoyl]-5-methylthiophene-3-carboxylate]", "values": [{"measurement": "Abbott control threshold effectiveness", "setting": "[1]; 30 g/ha, early post-emergent growth phase (two or fewer tillers, treated November 21), 117 days after the pre-emergence treatment application", "value": "≥ 80", "unit": "%"}, {"measurement": "Abbott control threshold effectiveness", "setting": "[1]; Poa annua at a later growth stage (more than two tillers, treated December 8)", "value": "< 80", "unit": "%"}, {"measurement": "Abbott control threshold effectiveness", "setting": "[2]; 15 g/ha, early post-emergent growth phase (two or fewer tillers, treated October 5), 77, 91 and 148 days after the pre-emergence treatment application", "value": "≥ 80", "unit": "%"}, {"measurement": "Abbott control threshold effectiveness", "setting": "[2]; 30 g/ha, early post-emergent growth phase (two or fewer tillers, treated October 5), 77, 91 and 148 days after the pre-emergence treatment application", "value": "≥ 80", "unit": "%"}, {"measurement": "Abbott control threshold effectiveness", "setting": "[2]; Poa annua at a later growth stage (more than two tillers, treated November 9)", "value": "< 80", "unit": "%"}, {"measurement": "reduction in Poa annua population", "setting": "[3]", "value": "≥ 80", "unit": "%"}]}]}
